The nature of assay [1]: Inhibition of Plasmodium falciparum recombinant M17 leucyl aminopeptidase expressed in Escherichia coli assessed as conversion of L-leucine-7-amido-4-methylcoumarin hydrochloride to NHMec preincubated for 10 mins prior to substrate addition by Dixon plot analysis.
Assay [2] can be described thus: Inhibition of Plasmodium falciparum recombinant M1 aminopeptidase expressed in Escherichia coli assessed as conversion of L-leucine-7-amido-4-methylcoumarin hydrochloride to NHMec preincubated for 10 mins prior to substrate addition by Dixon plot analysis.

We go through 8 compounds from ChEMBL document CHEMBL2384899, “Synthesis and structure-activity relationships of phosphonic arginine mimetics as inhibitors of the M1 and M17 aminopeptidases from Plasmodium falciparum” (J Med Chem, 2013).

Each structure is given as a SMILES string. Some results are limits rather than exact numbers.

As usually defined, the Ki is the dissociation constant of the complex between target and ligand, obtained from inhibition or displacement.

For the compound `N=C(N)Nc1cccc(C(N)P(=O)(O)O)c1` (stereo unspecified), the inhibition constant Ki in assay [1] was 0.16 µM; in assay [2], over 1000 µM.
Regarding `N=C(N)NCCCCC(N)P(=O)(O)O` (stereo unspecified), the inhibition constant Ki in assay [1] amounted to 268 µM; in assay [2] it was 11 µM.
For the compound `NCCCC(N)P(=O)(O)O` (stereo unspecified), the inhibitory constant (Ki) in assay [1] and in assay [2] was over 1000 µM in each case.
For the compound `N=C(N)Nc1ccc(CC(N)P(=O)(O)O)cc1` (stereo unspecified), the inhibition constant Ki is 63 µM in assay [1] and over 1000 µM in assay [2].
For `N=C(N)Nc1ccc(C(N)P(=O)(O)O)cc1` (stereo unspecified), the Ki in assay [1] was 1.8 µM; in assay [2] it was 127 µM.
For `NC(c1ccc(-n2cccn2)cc1)P(=O)(O)O` (stereo unspecified) the same measures were 0.011 µM and 104 µM.
`N=C(N)c1ccc(C(N)P(=O)(O)O)cc1` (stereo unspecified): the Ki is over 1000 µM in assay [1] and 345 µM in assay [2].
For `NC(N)=NCCCC(N)P(=O)(O)O` (stereo unspecified) the same measures were over 1000 µM and 193 µM.
